{"source": "patent US20260183301A1", "about": "“TREATING DISEASES AND DISORDERS WITH IRAK4-MODIFYING COMPOUNDS” (Curis, Inc., priority 2022, published 2026)", "key": {"[1]": {"tested_on": "NF-kB p-p50 S337", "assay": "Western blot of NF-kB p-p50 S337 in TF-1 (AML) cells", "type": "cell-based", "settings": "3 μM and 10 μM, 48 h, vs DMSO", "method": "(§1) At 48 h post-treatment, cell lysates were obtained. Protein sample concentration was quantified and equal amount 20 μg of whole protein extract was loaded in each well of SDS-polyacrylamide gel. Cell extracts were separated by 10% SDS-PAGE, transferred to nitrocellulose membrane, and probed as indicated. The following antibodies were used for immunoblot analysis: NF-kB p-p50 S337 (Santa Cruz Biotechnology) and b-actin (Cell Signaling Technology)."}, "[2]": {"tested_on": "NF-kappaB p-p50", "assay": "IHC of NF-kappaB p-p50 in paired tumor biopsies of NHL patients before and after treatment", "type": "in vivo, human", "settings": "paired tumor biopsy samples (3 cases) before and after treatment", "method": "Formalin-fixed, paraffin-embedded sections of human tonsil and lymphoma were used. Tissue sections (5 μm) were deparaffinized, and antigen retrieval was carried out at 90-100° C. in citrate buffer for 10-40 min. The sections were incubated in 1% […] for 10 minutes to quench endogenous tissue peroxidase. Tissue sections were then incubated with primary NF-κB p-p50-specific antibody (at 1:300 dilution) for approximately 16 h at 4° C. The primary NF-κB p-p50-specific antibody used NF-κB p-p50 (S337), sc-271908 from Santa Cruz Biotechnology.\nThe slides were stained using a standard EnVision+System-HRP kit (DAKO, Carpinteria, CA) according to the manufacture's protocol. Immunohistochemical reactions were developed with diaminobenzidine as the chromogenic peroxidase substrate, and slides were counterstained with hematoxylin. Negative control samples included replacement of the primary antibody with nonimmune IgG1 (Dako)."}, "[3]": {"tested_on": "resistant or refractory, advanced NHL", "assay": "Phase I dose escalation trial of oral monotherapy in NHL: tumor reduction", "type": "in vivo, human", "settings": "all doses", "description": "Seven dosing cohorts included 50 and 100 mg QD, and 50, 100, 200, 300, or 400 mg BID of daily continuous oral monotherapy in 21-Day cycles. Objective included safety and tolerance (primary), pk/pd and early efficacy (secondary), and biomarker correlations (exploratory). 31 patients with resistant or refractory, advanced NHL have been enrolled."}, "[4]": {"tested_on": "THP-1 xerographs", "assay": "THP-1 leukemic xerographs: disease burden", "type": "in vivo", "settings": "6 weeks of treatment at 12.5 mg/kg"}, "[5]": {"tested_on": "Waldenstrom's macroglobulinemia (WM)", "assay": "Phase 1 dose-escalation study, WM patient case: serum IgM, m-protein and response", "type": "in vivo, human", "from_the_text": "The patient remained asymptomatic for over 4 years with a slow increase in m-protein and IgM during that time. By mid-2017 they started to experience increased fatigue. […] There was no evidence of CXCR4 genomic alteration. […] Several options were discussed including clinical trials and standard of care Bruton's tyrosine kinase inhibitor (BTKi) therapy.\nQuantitative immunoglobulins and serum protein electrophoresis were obtained each cycle to determine response to treatment (FIG. 1).\nThe patient initiated treatment at the first dose level, 50 mg. […] Using a standard 3+3 design the subsequent dose level, 100 mg po BID, was cleared per protocol. […] They reported a significant improvement in their quality of life with resolution of fatigue and returned to a rigorous daily exercise program that they had been unable to perform for the last 2 years due to WM-related symptoms. […] Based on evolving safety data at higher dose levels, the patient was escalated to […] starting with cycle 20 in 1/2020."}, "[6]": {"assay": "Phase 1 study in AML or high risk MDS: safety (DLT)", "type": "in vivo", "method": "(§2) This study will be conducted in 2 parts: an initial dose escalation and dose expansion phase. […] Three patients with AML or MDS will be enrolled at the designated dose. If none of the first 3 patients experience a DLT during the first cycle, patients may be enrolled into the next higher dose level of 300 mg bid until a safe and effective RP2D is established.\n(§3) This study is expected to enroll approximately 18 patients to establish the initial RP2D.\n(§4) The major study inclusion and exclusion criteria are as follows: Relapsed or refractory AML (primary or secondary, including treatment-related) after at least one standard treatment (including chemotherapy, re-induction therapy or stem cell transplantation) based on the assessment of the investigator or high/very high risk relapsed/refractory MDS (IPSS—R criteria), following at least 6 cycles of hypomethylating agents [HMA] or evidence of early progression."}, "[7]": {"tested_on": "NF-kB p-p50 S337", "assay": "Western blot of NF-kB p-p50 S337 in OCL-LY10 cells", "type": "cell-based", "settings": "3 μM and 10 μM, 48 h, vs DMSO", "method": "as §1"}, "[8]": {"tested_on": "cytokine", "assay": "Pharmacodynamic cytokine changes in Phase I NHL patients", "type": "in vivo, human"}, "[9]": {"tested_on": "AML or high risk MDS", "assay": "Phase 1 study in AML or high risk MDS: marrow response", "type": "in vivo, human", "method": "as §2, §3, §4"}}, "note": "Entries after “also recorded” stand apart in the source; their conditions may differ.", "data": [{"smiles": "Cc1cc(-c2nc(C(=O)Nc3cc4oc(N5CCOCC5)nc4nc3N3CC[C@@H](O)C3)co2)ccn1", "note": "[Compound 1, emavusertib]", "values": [{"measurement": "expression of NF-kB p-p50 S337", "setting": "[1]", "result": "downregulated"}, {"measurement": "NF-kappaB p-p50 expression in tumors", "setting": "[2]", "result": "significant downregulation; also recorded: inhibited"}, {"measurement": "evaluable patients with overall tumor burden decreases of ≥20% from baseline", "setting": "[3]", "result": "Eight of 28"}, {"measurement": "disease burden", "setting": "[4]", "result": "decreased the disease burden"}, {"measurement": "fatigue (baseline symptom)", "setting": "[5]; WM patient, 200 mg po BID, by summer of 2019", "result": "completely resolved"}, {"measurement": "dose dependence of response / tumor burden", "setting": "[5]; human patient with intra-patient dose escalation", "result": "shrinking in a dose-dependent manner; also recorded: dose/response relationship; also recorded: dose-dependent objective response"}, {"measurement": "DLT", "setting": "[6]; Cohort 1, 200 mg BID, 3 patients with hr-MDS, 1st cycle", "result": "No DLT"}, {"measurement": "dose reduction for Gr. 3 dizziness", "setting": "[6]; Cohort 1, 200 mg BID, C2", "result": 1}, {"measurement": "DLT", "setting": "[6]; Cohort 2, 300 mg BID, first 3 patients", "result": "No DLT"}, {"measurement": "expression of NF-kB p-p50 S337", "setting": "[7]", "result": "downregulated"}, {"measurement": "pharmacodynamic changes in cytokines", "setting": "[8]", "result": "cytokine reductions"}, {"measurement": "marrow blasts", "setting": "[9]; all initial patients, cycle 1", "result": "marrow blast reduction"}, {"measurement": "marrow complete responses", "setting": "[9]; initial patients, cycle 1", "result": "several marrow complete responses"}, {"measurement": "clinical activity", "setting": "[9]; relapsed/refractory AML and high-risk MDS, ongoing Phase 1 study", "result": "clinical activity"}]}]}
